The record followed here is ChEMBL document CHEMBL1697681, “Predicting phospholipidosis using machine learning” (Mol Pharm, 2010).

The data set has as its system Phospholipidosis. Nature of the data set: Literature-mined public compounds from Lowe et al phospholipidosis modelling dataset.

Consider `CCN(CC)CCOC(=O)c1ccc(N)cc1` [PROCAINE], for which the Phospholipidosis result was “Negative”.
The entry for `CN(C)CCCN1c2ccccc2Sc2ccccc21` [PROMAZINE] is “Positive”; for `CC(CN1c2ccccc2Sc2ccccc21)N(C)C` (stereo not drawn) [PROMETHAZINE] it is “Positive”.
With `CC(C)NCC(O)COc1cccc2ccccc12` (stereo not drawn) [PROPRANOLOL] the entry was “Positive”.
With `CCN(CC)CCCC(C)Nc1c2ccc(Cl)cc2nc2ccc(OC)cc12` (stereo not drawn) [QUINACRINE] the entry was “Positive”; with `C=C[C@H]1C[N@@]2CC[C@H]1C[C@@H]2[C@@H](O)c1ccnc2ccc(OC)cc12` [QUINIDINE], “Positive”.
As for `CO[C@H]1/C=C/O[C@@]2(C)Oc3c(C)c(O)c4c(O)c(c(/C=N/N5CCN(C)CC5)c(O)c4c3C2=O)NC(=O)/C(C)=C\C=C\[C@H](C)[C@H](O)[C@@H](C)[C@@H](O)[C@@H](C)[C@H](OC(C)=O)[C@@H]1C` [RIFAMPIN], the Phospholipidosis result is recorded as “Negative”.
Turning to `CN(C)[C@@H]1C(O)=C(C(=O)NCN2CCCC2)C(=O)[C@@]2(O)C(O)=C3C(=O)c4c(O)cccc4[C@@](C)(O)[C@H]3C[C@@H]12` [ROLITETRACYCLINE], the Phospholipidosis result is reported as “Negative”.
With `CN[C@H]1CC[C@@H](c2ccc(Cl)c(Cl)c2)c2ccccc21` [SERTRALINE] the entry was “Positive”.
The entry for `CC(C)NCC(O)c1ccc(NS(C)(=O)=O)cc1` (stereo not drawn) [SOTALOL] is “Negative”; for `CN[C@@H]1[C@H](O)[C@H](NC)[C@H]2O[C@@]3(O)C(=O)C[C@@H](C)O[C@H]3O[C@@H]2[C@H]1O` [SPECTINOMYCIN] it is “Positive”.
The entry for `Cc1cn([C@H]2C=C[C@@H](CO)O2)c(=O)[nH]c1=O` [STAVUDINE] is “Negative”; for `N=C(N)c1ccc(/C=C/c2ccc(C(=N)N)cc2)cc1` [STILBAMIDINE] it is “Positive”.
As for `Cc1cc(NS(=O)(=O)c2ccc(N)cc2)no1` [SULFAMETHOXAZOLE], the Phospholipidosis entry was “Negative”.
With `Cc1ccc(C(=O)Nc2ccc(S(=O)(=O)O)c3cc(S(=O)(=O)O)cc(S(=O)(=O)O)c23)cc1NC(=O)c1cccc(NC(=O)Nc2cccc(C(=O)Nc3cc(C(=O)Nc4ccc(S(=O)(=O)O)c5cc(S(=O)(=O)O)cc(S(=O)(=O)O)c45)ccc3C)c2)c1` [SURAMIN] the entry was “Positive”.
The entry for `N=C(N)NCCCCCCCCCCNC(=N)N` [SYNTHALIN] is “Negative”; for `Nc1c2c(nc3ccccc13)CCCC2` [TACRINE] it is “Negative”.
With `CC/C(=C(\c1ccccc1)c1ccc(OCCN(C)C)cc1)c1ccccc1` [TAMOXIFEN] the entry was “Positive”.
On to `Cn1nnc2c(C(N)=O)ncn2c1=O` [TEMOZOLOMIDE], for which the Phospholipidosis entry is listed as “Negative”.
The entry for `CN(C)[C@@H]1C(O)=C(C(N)=O)C(=O)[C@@]2(O)C(O)=C3C(=O)c4c(O)cccc4[C@@](C)(O)[C@H]3C[C@@H]12` [TETRACYCLINE] is “Negative”.
Turning to `CC(=N)S` [THIOACETAMIDE], the Phospholipidosis entry is given as “Negative”.
The entry for `CSc1ccc2c(c1)N(CCC1CCCCN1C)c1ccccc1S2` (stereo not drawn) [THIORIDAZINE] is “Positive”; for `CCN(CC)CCOc1ccc2c(c1)C(=O)c1cc(OCCN(CC)CC)ccc1-2` [TILORONE] it is “Positive”.
Consider `NC[C@H]1O[C@H](O[C@H]2[C@H](O)[C@@H](O[C@H]3O[C@H](CO)[C@@H](O)[C@H](N)[C@H]3O)[C@H](N)C[C@@H]2N)[C@H](N)C[C@@H]1O` [TOBRAMYCIN], for which the Phospholipidosis entry is reported as “Positive”.
With `CC(CN(C)C)CN1c2ccccc2CCc2ccccc21` (stereo not drawn) [TRIMIPRAMINE] the entry was “Positive”.
The entry for `CCN(CC)CCOc1ccc(C(O)(Cc2ccc(Cl)cc2)c2ccc(C)cc2)cc1` (stereo not drawn) [TRIPARANOL] is “Positive”; for `CN(C)CCN(Cc1ccccc1)c1ccccn1` [TRIPELENNAMINE] it is “Positive”; for `CCCC[C@@H]1CC(=O)[C@]2(O)O[C@@H]3[C@@H](NC)[C@@H](O)[C@@H](NC)[C@H](O)[C@H]3O[C@@H]2O1` [TROSPECTOMYCIN] it is “Positive”.
As to `CCCC(CCC)C(=O)O` [VALPROIC ACID], the Phospholipidosis entry is listed as “Negative”.
Turning to `CC[C@]1(O)C[C@@H]2CN(CCc3c([nH]c4ccccc34)[C@@](C(=O)OC)(c3cc4c(cc3OC)N(C)[C@H]3[C@@](O)(C(=O)OC)[C@H](OC(C)=O)[C@]5(CC)C=CCN6CC[C@]43[C@@H]65)C2)C1` [VINBLASTINE], the Phospholipidosis entry is “Negative”.
With `Cc1cn([C@H]2C[C@H](N=[N+]=[N-])[C@@H](CO)O2)c(=O)[nH]c1=O` [ZIDOVUDINE] the entry was “Negative”; with `CC(c1cc2ccccc2s1)N(O)C(N)=O` (stereo not drawn) [ZILEUTON], “Negative”; with `CN(C)C/C=C(/c1ccc(Br)cc1)c1cccnc1` [ZIMELDINE], “Positive”.
